# How the values were obtained:
# [1] = Pharmacokinetics after oral administration in female rats; conditions: rat, in vivo, 80 mg/kg oral in aqueous CMC
# Text: Table III presents plasma concentration data (ng/mL) taken at 0.5 hr., 1 hr., 2 hrs., 4 hrs., 7 hrs., 10 hrs. and 24 hrs. following the administration, Cmax, Tmax and AUC.
# [2] = test system: PDE3 from human platelets; test: PDE selectivity, single concentration, PDE3; type: biochemical; conditions: for PDE Specificity Ratio PDE3/PDE4: from above data
# Experimental: (§1) The specificity of compounds for specific PDE's was assessed by testing at a single concentration (100 μM) against bovine PDE1, human PDE2, PDE3, and PDE5 from human platelets (Hidaka and Asano 1976, Biochem. Biophys. Acta 429:485, and Nicholsen et al. 1991, Trends Pharmaco. Sci. 12:19).
# [3] = biological target: T1, PDE5 from human platelets (Homo sapiens, UniProt O76074); test: PDE selectivity, single concentration, PDE5; type: biochemical; conditions: for PDE Specificity Ratio PDE5/PDE4: from above data; for inhibition at 100 µM: read-out: PDE5 (% inhib at 100 μM)
# T1 construct: PDE3, and PDE5 from human platelets; from tissue; host or cells: human platelets
# Experimental: as §1
# [4] = test system: IL-1β-induced TNF-α production from human PBMC; test: IL-1β-induced TNF-α production from human PBMC; type: cell-based; conditions: recombinant human IL-1β 50 ng/ml, 18 hours
# Experimental: During the course of inflammatory diseases, TNF-α production is often stimulated by the cytokine IL-1β, rather than by bacterially derived LPS. Compounds are tested for the ability to inhibit EL-1β-induced TNF-α production from human PBMC as described above for LPS-induced TNF-α production, except that the PBMC are isolated from source leukocyte units (Sera-Tec Biologicals, North Brunswick, N.J., USA) by centrifugation on Ficoll-Paque Plus (Amersham Pharmacia, Piscataway, N.J., USA), plated in 96-well tissue culture plates at 3×10^5 cells/well in RPMI-1640 medium (BioWhittaker, Walkersville, Md., USA) containing 10% heat-inactivated fetal bovine serum (Hyclone), 2 mM L-glutamine, 100 U/ml penicillin, and […] (complete medium), pretreated with compounds at 10, 2, 0.4, 0.08, 0.016, 0.0032, 0.00064, and 0 μM in duplicate at a final DMSO concentration of 0.1% at 37° C. in a humidified incubator at 5% CO2 for 1 hour, then stimulated with 50 ng/ml recombinant human IL-1β (Endogen) for 18 hours.
# [5] = test system: PDE4 enzyme purified from U937 human monocytic cells; test: PDE4 inhibition (enzyme purified from U937 cells); type: biochemical; conditions: 1 μM cAMP, 30 min at 30° C.
# Experimental: PDE4 enzyme was purified from U937 human monocytic cells by gel filtration chromatography as previously described (Muller et al. 1998, Bioorg. & Med Chem Lett 8:2669-2674). Phosphodiesterase reactions were carried out in 50 mM Tris HCl pH 7.5, 5 mM MgCl2, 1 μM cAMP, 10 nM [^311)-cAMP for 30 min at 30° C., terminated by boiling, treated with 1 mg/ml snake venom, and separated using AG-IXS ion exchange resin (BioRad) as described (Muller et al. 1998, Bioorg. & Med Chem Lett 8:2669-2674). Reactions consumed less than 15% of available substrate.
# bovine PDE1 = test: PDE selectivity, single concentration, PDE1; type: biochemical; conditions: for PDE Specificity Ratio PDE1/PDE4: from above data
# Experimental: as §1
# [6] = test system: LPS-induced TNF-α production from human PBMC; test: LPS-induced TNF-α production from human PBMC; type: cell-based; conditions: LPS 100 ng/ml, 18-20 hours, ELISA
# Experimental: Lipopolysaccharide (LPS) is an endotoxin produced by gram-negative bacteria such as E. coli which induces production of many pro-inflammatory cytokines, including TNF-α In peripheral blood mononuclear cells (PBMC), the TNF-α produced in response to LPS is derived from monocytes, which comprise approximately 5-20% of the total PBMC. Compounds were tested for the ability to inhibit LPS-induced TNF-α production from human PBMC as previously described (Muller et al. 1996, J. Med Chem. 39:3238). PBMC from normal donors were obtained by Ficoll Hypaque (Pharmacia, Piscataway, N.J., USA) density centrifugation. Cells were cultured in RPMI (Life Technologies, Grand Island, N.Y., USA) supplemented with 10% AB± human serum (Gemini Bio-products, Woodland, Calif., USA), 2 mM L-glutamine, 100 U/ml penicillin, and 100 μg/ml streptomycin (Life Technologies).
# PBMC (2×10^5 cells) were plated in 96-well flat-bottom Costar tissue culture plates (Coming, N.Y., USA) in triplicate. Cells were stimulated with LPS (Sigma, St. Louis, Mo., USA) at 100 ng/ml in the absence or presence of compounds. Compounds (Celgene Corp., Warren, N.J., USA) were dissolved in DMSO (Sigma) and further dilutions were done in culture medium immediately before use. The final DMSO concentration in all samples was 0.25%. Compounds were added to cells 1 hour before LPS stimulation. […]
# human PDE2 = human PDE2 (Homo sapiens, UniProt O00408); test: PDE selectivity, single concentration, PDE2; type: biochemical
# human PDE2, sequence (O00408 whole entry): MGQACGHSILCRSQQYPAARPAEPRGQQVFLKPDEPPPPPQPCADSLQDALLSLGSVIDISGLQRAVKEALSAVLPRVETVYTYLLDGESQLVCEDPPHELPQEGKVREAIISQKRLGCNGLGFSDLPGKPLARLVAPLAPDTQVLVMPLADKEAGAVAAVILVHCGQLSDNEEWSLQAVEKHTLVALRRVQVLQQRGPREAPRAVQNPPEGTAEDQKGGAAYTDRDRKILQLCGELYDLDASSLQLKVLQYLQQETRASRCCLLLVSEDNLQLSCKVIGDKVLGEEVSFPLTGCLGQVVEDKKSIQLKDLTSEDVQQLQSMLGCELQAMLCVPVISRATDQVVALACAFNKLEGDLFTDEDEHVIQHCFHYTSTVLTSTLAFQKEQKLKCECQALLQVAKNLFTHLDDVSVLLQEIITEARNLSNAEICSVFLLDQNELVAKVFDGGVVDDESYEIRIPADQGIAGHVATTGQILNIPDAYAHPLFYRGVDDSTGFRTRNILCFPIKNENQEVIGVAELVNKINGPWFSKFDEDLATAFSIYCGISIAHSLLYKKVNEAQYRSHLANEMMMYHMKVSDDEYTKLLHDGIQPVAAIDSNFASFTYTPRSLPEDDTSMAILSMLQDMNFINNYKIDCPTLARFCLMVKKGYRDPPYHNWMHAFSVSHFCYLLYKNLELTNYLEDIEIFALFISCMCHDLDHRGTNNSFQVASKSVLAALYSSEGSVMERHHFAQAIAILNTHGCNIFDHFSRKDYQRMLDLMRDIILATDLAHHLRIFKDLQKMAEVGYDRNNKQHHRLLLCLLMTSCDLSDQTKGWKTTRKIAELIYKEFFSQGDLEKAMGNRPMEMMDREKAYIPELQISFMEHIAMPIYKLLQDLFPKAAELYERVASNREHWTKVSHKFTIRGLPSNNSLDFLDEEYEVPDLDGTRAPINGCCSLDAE
# Experimental: as §1
Compound,PDE3 (% inhib at 100 μM) [2] [%],PDE Specificity Ratio PDE3/PDE4 [2],PDE Specificity Ratio PDE5/PDE4 [3] [fold],inhibition at 100 µM [3] [%],IC50 [4] [µM],IC50 [5] [µM],PDE1 (% inhib at 100 μM) (bovine PDE1) [%],PDE Specificity Ratio PDE1/PDE4 (bovine PDE1),IC50 [6] [µM],other results
"COc1ccc(C(CC(N)=O)N2Cc3ccccc3C2=O)cc1OC (racemic) [Racemic Compound, 3-(3,4-dimethoxy-phenyl)-3-(1-oxo-1,3-dihydro-isoindol-2-yl)-propionamide]",51,˜4.8 fold,>4.8,14,16,15,20,>4.8 fold,21,"concentration at 0 h ([1]; 0 hour, read-out: plasma concentration): 0 ng/mL; AUC [1]: 44200 ng·h/mL; Cmax [1]: 4910 ng/mL; Tmax [1]: 2 h; concentration at 0.5 h ([1]; 0.5 hour, read-out: plasma concentration): 3900 ng/mL; concentration at 1 h ([1]; 1 hour, read-out: plasma concentration): 4600 ng/mL; concentration at 2 h ([1]; 2 hours, read-out: plasma concentration): 4120 ng/mL; concentration at 4 h ([1]; 4 hours, read-out: plasma concentration): 2980 ng/mL; concentration at 7 h ([1]; 7 hours, read-out: plasma concentration): 2520 ng/mL; concentration at 10 h ([1]; 10 hours, read-out: plasma concentration): 2060 ng/mL; concentration at 24 h ([1]; 24 hours, read-out: plasma concentration): 9.2 ng/mL"
"COc1ccc(C(CC(N)=O)N2Cc3ccccc3C2=O)cc1OC (single isomer, unassigned; (+)) [Compound B, (+)-3-(3,4-dimethoxy-phenyl)-3-(1-oxo-1,3-dihydro-isoindol-2-yl)-propionamide]",50,˜1 fold,>1,5,86,67,47,˜1 fold,100,PDE Specificity Ratio PDE2/PDE4 (human PDE2; from above data): >1 fold; inhibition at 100 µM (human PDE2; read-out: PDE2 (% inhib at 100 μM)): 22%

# Source: patent publication US20040167199A1, “Methods of using and compositions comprising (-)-3-(3,4-dimethoxy-phenyl)-3-(1-oxo-1,3-dihydro-isoindol-2-yl)-propionamide” (Celgene Corporation, priority 2002, published 2004)
